# Measured values taken from US20050261332A1, “Sulfonamides and uses thereof” (priority 2004, published 2005).
# Target: T1, GHS-R (Homo sapiens, UniProt Q92847)
# T1 construct: expressed in transfected cells; host or cells: COS-7 cells
# Test: GHS-R competition binding assay (Ki of GHS-R antagonizing compounds)
# Procedure: One exemplary binding assay is as follows: GHS-R expressing COS-7 cells cultured at a density of 1×10^5 cells per well so that binding is assayed in the range of about 5-8 % binding of the radioactive ligand. For example, the cells can express an endogenous nucleic acid encoding GHS-R or an exogenous nucleic acid encoding GHS-R. Cells transfected with an exogenous nucleic acid encoding GHS-R can be used, e.g., two days, after transfection. Competition binding experiments are performed for 3 hours at 4° C. using 25 pM of ^125I-ghrelin in 0.5 ml of 50 mM HEPES buffer, pH 7.4, supplemented with 1 mM CaCl2, 5 mM MgCl2, and 0.1% (w/v) bovine serum albumin, 40 mg/ml bacitracin. Non-specific binding can be determined as the binding in the presence of […] of unlabeled ghrelin. Cells are washed twice in 0.5 ml of ice-cold buffer and then lysed with 0.5-1 ml of lysis buffer (8 M Urea, 2% NP40 in 3 M acetic acid). After washing and lysis, the bound radioactivity is counted. Assays can be run in duplicate or triplicate, e.g., to provide statistical power.
# Values of the dissociation and inhibition constants (Kd and Ki) can be estimated from competition binding experiments using the equation: Kd=IC50-L and Ki=IC50/(1+L/Kd), where L is the concentration of radioactive ligand. Bmax values can be estimated from competition binding experiments using the equation Bmax=B0 IC50/[ligand], where B0 is the specifically bound radioligand.
# T1 sequence (Q92847 whole entry, species assumed): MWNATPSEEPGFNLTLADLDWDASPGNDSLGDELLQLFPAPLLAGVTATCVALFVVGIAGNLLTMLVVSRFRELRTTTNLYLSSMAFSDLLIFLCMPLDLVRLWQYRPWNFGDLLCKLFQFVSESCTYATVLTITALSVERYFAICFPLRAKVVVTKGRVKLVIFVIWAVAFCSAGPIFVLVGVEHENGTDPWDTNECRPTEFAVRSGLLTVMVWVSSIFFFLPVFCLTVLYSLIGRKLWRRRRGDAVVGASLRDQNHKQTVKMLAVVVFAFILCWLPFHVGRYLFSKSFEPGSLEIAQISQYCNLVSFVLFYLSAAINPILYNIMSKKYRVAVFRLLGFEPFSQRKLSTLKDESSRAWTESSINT
row,SMILES,Ki
1,"CCN(CC)CCCS(=O)(=O)N[C@H](COCc1ccccc1)C(=O)NCc1ccc(-c2ccccc2C(N)=O)cc1 [Compound 154, (R)-4′-{[3-Benzyloxy-2-(3-diethylamino-propane-1-sulfonylamino)-propionylamino]-methyl}-biphenyl-2-carboxylic acid amide]",100 to 1000 nM
2,"CCN(CC)CCCS(=O)(=O)N[C@H](COCc1ccccc1)C(=O)NCc1ccc(-c2ccccc2-c2nnn(C(C)(C)C)n2)cc1 [Compound 155, (R)-3-Benzyloxy-N-[2′-(2-tert-butyl-2H-tetrazol-5-yl)-biphenyl-4-ylmethyl]-2-(3-diethylamino-propane-1-sulfonylamino)-propionamide]",100 to 1000 nM
3,"CCN(CC)CCCS(=O)(=O)N[C@H](COCc1ccccc1)C(=O)NCc1ccc(-c2ccccc2-c2nn[nH]n2)cc1 [Compound 156, (R)-3-Benzyloxy-2-(3-diethylamino-propane-1-sulfonylamino)-N-[2′-(2H-tetrazol-5-yl)-biphenyl-4-ylmethyl]-propionamide]",100 to 1000 nM
4,"CN([C@H](COCc1ccccc1)C(=O)N1CCC2(CC1)CN(S(C)(=O)=O)c1ccccc12)S(=O)(=O)CCCCl [Compound 157, (R)-N-(3-(benzyloxy)-1-(1-(methylsulfonyl)spiro[indoline-3,4′-piperidine]-1′-yl)-1-oxopropan-2-yl)-3-chloro-N-methylpropane-1-sulfonamide]",100 to 1000 nM
5,"CCN(CC)CCCS(=O)(=O)N[C@H](COCc1ccccc1)C(=O)NCc1ccc(-c2ccccc2C#N)cc1 [Compound 158, (R)-3-Benzyloxy-N-(2′-cyano-biphenyl-4-ylmethyl)-2-(3-diethylamino-propane-1-sulfonylamino)-propionamide]",< 100 nM
6,"COCCCS(=O)(=O)N[C@H](COCc1ccccc1)C(=O)N1CCC2(CC1)CN(S(C)(=O)=O)c1ccccc12 [Compound 159, (R)-N-(3-(benzyloxy)-1-(1-(methylsulfonyl)spiro[indoline-3,4′-piperidine]-1′-yl)-1-oxopropan-2-yl)-3-methoxypropane-1-sulfonamide]",100 to 1000 nM
7,"CCN(CC)CCCS(=O)(=O)N(C)[C@H](COCc1ccccc1)C(=O)N1CCC2(CC1)CN(S(C)(=O)=O)c1ccccc12 [Compound 160, (R)-N-(3-(benzyloxy)-1-(1-(methylsulfonyl)spiro[indoline-3,4′-piperidine]-1′-yl)-1-oxopropan-2-yl)-3-(diethylamino)-N-methylpropane-1-sulfonamide]",< 100 nM
8,"CCN(CC)CCCS(=O)(=O)N[C@H](CCc1ccccc1)C(=O)NCc1ccc(-c2ccccc2-c2nn[nH]n2)cc1 [Compound 161, (R)-N-((2′-(2H-tetrazol-5-yl)biphenyl-4-yl)methyl)-2-(3-(diethylamino)propylsulfonamido)-4-phenylbutanamide]",100 to 1000 nM
9,"CCN(CC)CCCS(=O)(=O)N[C@H](COCc1ccccc1)C(=O)NCc1ccc(-c2ccccc2-c2noc(=S)[nH]2)cc1 [Compound 162, (R)-3-Benzyloxy-2-(3-diethylamino-propane-1-sulfonylamino)-N-[2′-(5-thioxo-4,5-dihydro-[1,2,4]oxadiazol-3-yl)-biphenyl-4-ylmethyl]-propionamide]",< 100 nM
10,"CCN(CC)CCCS(=O)(=O)N[C@H](CCc1ccccc1)C(=O)N1CCC2(CC1)CN(S(C)(=O)=O)c1ccccc12 [Compound 163, (R)-3-(diethylamino)-N-(1-(1-(methylsulfonyl)spiro[indoline-3,4′-piperidine]-1′-yl)-1-oxo-4-phenylbutan-2-yl)propane-1-sulfonamide]",< 100 nM
11,"CCN(CC)CCCS(=O)(=O)N[C@H](COCc1ccccc1)C(=O)NCc1ccc(-c2ccccc2-c2noc(=O)[nH]2)cc1 [Compound 164, (R)-3-Benzyloxy-2-(3-diethylamino-propane-1-sulfonylamino)-N-[2′-(5-oxo-4,5-dihydro-[1,2,4]oxadiazol-3-yl)-biphenyl-4-ylmethyl]-propionamide]",100 to 1000 nM
